# Results reported in PubChem BioAssay (NCI).
#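 Assay format: 96-well plates, 48-hour exposure. GI50 marks 50% less growth. At the TGI there is no net growth.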
# Legend:
# Experiment in all cases: NCI anticancer screen, dose series, 48 h
# UACC-257 melanoma = system: UACC-257 melanoma
# BT-549 breast = system: BT-549 breast
# CCRF-CEM leukemia = system: CCRF-CEM leukemia
# NCI-H460 lung = system: NCI-H460 lung
# PC-3 prostate = system: PC-3 prostate
# CAKI-1 renal = system: CAKI-1 renal
# MDA-MB-435 = system: MDA-MB-435
# IGROV1 ovarian = system: IGROV1 ovarian
# NCI-H226 lung = system: NCI-H226 lung
# 786-0 renal = system: 786-0 renal
# MDA-MB-231 breast = system: MDA-MB-231 breast
# OVCAR-3 ovarian = system: OVCAR-3 ovarian
# NCI-H522 lung = system: NCI-H522 lung
# SF-268 CNS = system: SF-268 CNS
# LOX IMVI melanoma = system: LOX IMVI melanoma
# SK-MEL-2 melanoma = system: SK-MEL-2 melanoma
# A498 renal = system: A498 renal
# SNB-19 CNS = system: SNB-19 CNS
# OVCAR-8 ovarian = system: OVCAR-8 ovarian
# SW-620 colon = system: SW-620 colon
# SK-MEL-5 melanoma = system: SK-MEL-5 melanoma
# HL-60(TB) leukemia = system: HL-60(TB) leukemia
# HT29 colon = system: HT29 colon
# HCT-15 colon = system: HCT-15 colon
# HOP-92 NSCLC = system: HOP-92 NSCLC
# OVCAR-5 ovarian = system: OVCAR-5 ovarian
# COLO 205 colon = system: COLO 205 colon
# A549 NSCLC = system: A549 NSCLC
# HOP-62 NSCLC = system: HOP-62 NSCLC
smiles,measurement,setting,value
Cc1ccc(-c2nc3nc(-c4ccc(Br)cc4)nc(N4CCCNCC4)c3o2)cc1,GI50,UACC-257 melanoma,18.2 µM
same,TGI,UACC-257 melanoma,39.7 µM
same,GI50,BT-549 breast,16 µM
same,TGI,BT-549 breast,34.6 µM
same,GI50,CCRF-CEM leukemia,2.35 µM
same,TGI,CCRF-CEM leukemia,5.57 µM
same,GI50,NCI-H460 lung,1.9 µM
same,TGI,NCI-H460 lung,3.61 µM
same,GI50,PC-3 prostate,2.48 µM
same,TGI,PC-3 prostate,7.52 µM
same,GI50,CAKI-1 renal,1.58 µM
same,TGI,CAKI-1 renal,2.92 µM
same,GI50,MDA-MB-435,1.88 µM
same,TGI,MDA-MB-435,3.74 µM
same,GI50,IGROV1 ovarian,1.84 µM
same,TGI,IGROV1 ovarian,3.61 µM
same,GI50,NCI-H226 lung,17 µM
same,TGI,NCI-H226 lung,38.9 µM
same,GI50,786-0 renal,3.95 µM
same,TGI,786-0 renal,16 µM
same,GI50,MDA-MB-231 breast,1.93 µM
same,TGI,MDA-MB-231 breast,4.05 µM
same,GI50,OVCAR-3 ovarian,1.84 µM
same,TGI,OVCAR-3 ovarian,3.36 µM
same,GI50,NCI-H522 lung,1.86 µM
same,TGI,NCI-H522 lung,4.5 µM
same,GI50,SF-268 CNS,3.63 µM
same,TGI,SF-268 CNS,15.2 µM
same,GI50,LOX IMVI melanoma,1.76 µM
same,TGI,LOX IMVI melanoma,3.34 µM
same,GI50,SK-MEL-2 melanoma,18.5 µM
same,TGI,SK-MEL-2 melanoma,36.3 µM
same,GI50,A498 renal,13.9 µM
same,TGI,A498 renal,27.5 µM
same,GI50,SNB-19 CNS,14.1 µM
same,TGI,SNB-19 CNS,27.6 µM
same,GI50,OVCAR-8 ovarian,2.28 µM
same,TGI,OVCAR-8 ovarian,5.28 µM
same,GI50,SW-620 colon,1.84 µM
same,TGI,SW-620 colon,3.57 µM
same,GI50,SK-MEL-5 melanoma,16.7 µM
same,TGI,SK-MEL-5 melanoma,31.6 µM
same,GI50,HL-60(TB) leukemia,1.99 µM
same,TGI,HL-60(TB) leukemia,4.07 µM
same,GI50,HT29 colon,1.86 µM
same,TGI,HT29 colon,3.54 µM
same,GI50,HCT-15 colon,1.72 µM
same,TGI,HCT-15 colon,3.25 µM
same,GI50,HOP-92 NSCLC,12.7 µM
same,TGI,HOP-92 NSCLC,29.5 µM
same,GI50,OVCAR-5 ovarian,16.3 µM
same,TGI,OVCAR-5 ovarian,30 µM
same,GI50,COLO 205 colon,5.56 µM
same,TGI,COLO 205 colon,20.2 µM
same,GI50,A549 NSCLC,1.96 µM
same,TGI,A549 NSCLC,4.04 µM
same,GI50,HOP-62 NSCLC,15.8 µM
same,TGI,HOP-62 NSCLC,35.1 µM
